Laboratory results published in patent publication US4007179A, “Oxoindanylpropionic acids and process for the preparation thereof” (Sankyo Company Limited, priority 1975, dated 1977).

What was measured:
Format in all cases: in vivo
[1] = Antipyretic activity: TTG-induced fever test in guinea pigs; conditions: Cavia porcellus, po, read-out: ID50 Antipyretic
Description: Antipyretic activity Tested by TTG-induced fever test in guinea pigs [ modified methodof S. Kobayashi, H. Takagi; Jap.

[2] = Anti-inflammatory activity: carrageenin edema test in rats; conditions: Rattus norvegicus, po, read-out: ID50 Anti-inflammatory
Description: Anti-inflammatory activity
Tested by carrageenin edema test in rats [C.

[3] = Analgesic activity: thermal pain test in rats; conditions: Rattus norvegicus, po, read-out: ID50 Analgesic
[4] = TTG-induced fever test in guinea pigs

SMILES	ED50 [1, 4]	ED50 ([2]; carrageenin edema test in rats)	ED50 ([3]; thermal pain test in rats)	ED50 [1]	ED50 [2]	ED50 [3]
CCC1Cc2ccc(C(C)C(=O)O)cc2C1 (stereo not drawn) [2-(2-Ethylindan-5-yl)propionic acid]	1.7 mg/kg	10.3 mg/kg	10.5 mg/kg			
CC(C(=O)O)c1ccc2c(c1)CC(C(C)C)C2 (stereo not drawn) [2-(2-Isopropylindan-5-yl)propionic acid]	1.8 mg/kg	7.1 mg/kg	2.5 mg/kg			
CC(=O)Oc1ccccc1C(=O)O [Acetylsalicylic acid, reference compound]				194 mg/kg	133 mg/kg	81 mg/kg
